Like-named read-outs stand apart in the source and are kept apart here.
Legend:
[1] = Side-effect evaluation (mouse weight, hematology, articular cartilage); format: in vivo, SCID mice; details: compared to controls; for Mouse weight loss during treatment: 6 i.v. injections at 4-day intervals
Method: To assess side effects, mouse weight was monitored and pathology analyses on healthy articular cartilage and hematological analyses were carried out at 24 hours after the last injection. Approximately 50 μL of blood, obtained by retro-orbital sampling, were analyzed on a Melet Schloesing MS9-5 Hematology Analyzer (n = 5 blood samples per group of treatment) (Diamond diagnostics).
Mouse paws (n = 5 per group of treatment) were fixed in 10% neutral buffer formalin, decalcified with 4.13% EDTA and 0.2% paraformaldehyde in PBS for 96 hours using KOS microwave tissue processor (Milestone), and embedded in paraffin. Then, 4–5-μm thick sections were stained by Toluidine Blue (pH 2.5) to visualize aggrecan or by Masson trichrome to visualize collagen. All images were captured with NanoZoomer (Hamamatsu).

[2] = tested on: HEMC-SS spheroids; assay: In vitro proliferation assay (AlamarBlue), HEMC-SS Day 10 spheroids; format: cell-based, human; details: for IC50: Homo sapiens, 24 hours exposure then 48 hours in normoxia; for HCR (hypoxic-cytotoxic ratio) Spheroids: normoxia vs hypoxia IC50
Method: To generate HEMC-SS spheroids, cells were harvested from culture flasks by trypsinization and seeded in 96-well non-adherent plates (Nunc) with 100 μL of 0.5% methylcellulose (Bio-Techne) diluted in the corresponding medium at a density of 1000 cells per well. Cultures were maintained in a 5% CO2 humidified environment at 37°C.
(§1) After trypsinization, HEMC-SS cells were seeded in 96-well plates at a density of 20.10^3 cells in 150 μL of the corresponding culture medium and allowed to adhere overnight. For 3D cell culture, Day 10 spheroids were used. Increasing drug concentrations diluted in DMSO (maintaining final DMSO concentration at 0.5% (v/v)) were added. After plate incubations for 24 hours in normoxic (21% O2, 5% CO2, 37 °C) or hypoxic (N2, O2 < 0.3%, 37 °C) conditions, the culture media were removed and 2D and 3D cells were washed with PBS and left to grow for 48 hours in normoxic conditions. Viability of cells cultured in monolayer or spheroids was quantified by AlamarBlue assay. Cytotoxic activity was expressed as the drug concentration that inhibited cell growth by 50% (IC50). Experiments were performed in triplicates. Data are represented as means ± SD. Statistical significance was determined using one-way ANOVA followed by Tukey's post-hoc multiple comparisons test. Results were considered significant at p < 0.05.

[3] = tested on: HEMC-SS xenograft tumors; assay: Characterization of treated tumors (histology, western blot, immunohistochemistry); format: in vivo, SCID mice; details: for γH2AX-positive cells in pimonidazole-positive hypoxic tumor areas: immunostaining on consecutive tumor sections
Method: The day after the last dose, 50% of animals of each group were euthanized by CO2 inhalation, and tumors were sampled for histology and immunohistochemistry analyses (n≥3 tumors samples per group of treatment).
Approximately 30 μg of proteins from tumors (n = 3 independent tumor samples per group of treatment) recovered one day after last dose were loaded onto 10% acrylamide gels and separated by SDS-PAGE. Proteins were then transferred to nitrocellulose membranes (Millipore) and incubated with specific primary antibodies p53S15 (Cell Signaling), p21 (Santa Cruz), p-Chk1 (S345) (Cell Signaling) or GAPDH (Santa Cruz) used as housekeeping protein. Antibody-antigen interaction was evidenced by chemiluminescence (Amersham) using HRP-conjugated secondary antibodies (Southern Biotech). Signal was detected and quantified using Image Lab software (BioRad). Data are represented as means ± SD. Statistical significance was determined using one-way ANOVA followed by Tukey's post-hoc multiple comparisons test. Results were considered significant at p < 0.05.
For tumors, the exogenous hypoxia marker pimonidazole hydrochloride (Hypoxyprobe™) was i.p.-injected at 60 mg/kg one hour before mice were euthanized. Tumors were removed, fixed in 10% neutral buffered formalin, and embedded in paraffin. For spheroid cultures, pimonidazole was added at a final concentration of 200 μM two hours before fixation and paraffin-embedding.
Five μm-thick sections were cut and adhered to poly-L-Lysine-coated glass microscope slides. After deparaffinization and rehydration, slides were stained by haematoxylin–eosin (H&E) or Alcian blue (pH 1) to visualize aggrecan or used for immunohistochemistry. After antigen retrieval, endogenous peroxidase quench and saturation, slides were incubated with the primary antibody: anti-Ki 67 (Abcam) rabbit polyclonal antibody (1/2000, 11 hours, RT), anti-pimonidazole (Hypoxyprobe™) mouse monoclonal antibody (1/100, 30 minutes, RT) or anti-phospho-histone-H2AX (Merck Millipore) mouse monoclonal antibody (1/2000, 11 hours, RT). HRP-conjugated rabbit anti-mouse IgG1 secondary antibody (Hypoxyprobe, 1/100, 30 minutes, RT) was used to detect pimonidazole adduct and a biotinylated goat anti-mouse IgG1 secondary antibody (Vector Laboratories, 1/500, 1 hour) was used to detect anti-Ki-67 and anti-phospho-histone-H2AX. Biotin was then complexed with streptavidin-coupled HRP (Vector Laboratories, 1/500, 30 minutes). HRP was detected using a DAB ultravision detection system (Thermo Scientific).

[4] = tested on: HEMC-SS cells; assay: Cell cycle determination and apoptosis (Annexin V) evaluation by flow cytometry; format: cell-based, human
Method: At 24 hours before treatment, 1.10^6 HEMC-SS cells were seeded in 6-well plates (Nunc) at 3 mL/well of corresponding culture media. Cells were treated with 8-QA compound at 25 μM, 50 μM, or 100 μM final concentrations for 24 hours, under either normoxic (21% O2, 5% CO2, 37°C) or hypoxic (N2, O2 < 0.3%, N2, 37°C) conditions. After incubation, the cells were harvested by trypsinization. The cell suspension containing both floating and adherent cells was centrifuged (400 g, 8 min at +4°C) in PBS. Cell cycle analyses were carried out by resuspending cells in 500 μL of ribonuclease 1 (1 mg/mL) added with 500 μL of propidium iodide (1 mg/mL) (Sigma Aldrich), and apoptotic cells were detected using the Annexin V-FITC kit (Miltenyi Biotec). The cell cycle distribution and proportion of apoptotic cells were analyzed by flow cytometrey (LSR II flow cytometer, BD Biosciences). Experiments were performed in triplicates. Data are represented as means ± SD. For cell cycle analyses, statistical significance was determined using two-way ANOVA followed by Tukey's post-hoc multiple comparison test. For Annexin V test, significance was determined using two-way ANOVA followed by Bonferroni's post-hoc multiple comparison test.

[5] = tested on: HEMC-SS chondrosarcoma cells (monolayer); assay: In vitro proliferation assay (AlamarBlue), HEMC-SS monolayer culture; format: cell-based, human; details: for IC50: Homo sapiens; for HCR (hypoxic-cytotoxic ratio) Monolayer: normoxia vs hypoxia IC50
Method: Human HEMC-SS chondrosarcoma cell line was obtained from the European Collection of Authenticated Cell Cultures and cultured in DMEM/F12 medium (Life Technologies) supplemented with 10% fetal calf serum (Dutscher) and 4 μg/mL gentamicin.
as §1

[6] = tested on: aggrecan from bovine articular cartilage; assay: Surface plasmon resonance (SPR) binding to immobilized aggrecan; details: for Binding to aggrecan (sensorgrams): analytes injected at 0.0625-1 mM, 600 seconds; for Kd: steady-state affinity analysis, ligand: immobilized aggrecan, triplicate, read-out: Dissociation constant (KD)
Method: SPR assay was carried out on a Biacore T200 instrument (GE Healthcare) with a CM4 sensor chip (GE Healthcare). To immobilize aggrecan from bovine articular cartilage (Sigma-Aldrich), the sensor chip was first activated using a 1:1 mixture of 0.2 M 1-ethyl-3-(3-dimethylaminopropyl)carbodiimide hydrochloride and 0.5 M N-hydroxysuccinimide (amine coupling kit, GE Healthcare) at a flow rate of 5 μL/min for 10 minutes. Aggrecan was then coated on the sensor chip at 400 μg/mL in running buffer HBS-P^+ 1X (0.01 M HEPES, 0.15 M NaCl, 0.05% v/v surfactant p20, pH 7.4) with 6 mM hexadecyltrimethylammoniumbromide (CTAB) at 5 μL/min to a level of ~500 response units. Unoccupied binding sites were blocked using 1 M ethanolamine (pH 8.5) (Amine coupling kit, GE Healthcare) at 5 μL/min during 10 minutes. The studied molecules (analytes) were diluted in running buffer HBS-P^+ 1X before application to the sensor chip at 30 μL/min. Regeneration of the sensor chips was achieved using 2 M NaCl solution during 150 seconds. Dissociation constants (KD) were determined using Biacore T200 Evaluation software with a “steady-state affinity analysis” after injection of five different concentrations of analytes.

[7] = tested on: human osteosarcoma Saos-2 cells; assay: Cytotoxic activity on osteosarcoma Saos-2 cells; format: cell-based; details: hypoxic conditions, unpublished data of the authors
[8] = tested on: HEMC-SS xenograft model; assay: In vivo antitumor efficacy on HEMC-SS xenograft model; design: species or system SCID mice; details: for Antitumor effect (tumor volume vs controls): 6 i.v. injections at 4-day intervals, 8-QA and 8 47.0 μmol/kg, 10-QA 46.7 μmol/kg
Method: In vivo studies were carried out on 50 female Severe Combined ImmunoDeficiency (SCID) mice aged 4–5 weeks old (Janvier Labs). All animal studies were carried out in accordance with the directive 2010/63/EU after approval by the institutional review board (C2E2A, authorization #CE85-12).
To obtain in vivo tumors, 10^7 HEMC-SS cells in 100 μL of PBS were injected with 100 μL of Matrigel® (BD Biosiences) subcutaneously into the right flank of the mice.
The antitumor efficiency of 8-QA was first studied respectively to its non-QA equivalent (8) used as negative control for proteoglycan targeting. In a second independent study, we evaluated the antitumor activity of non-hypoxia activated derivative (10-QA) used as negative control of hypoxia activation, respectively to another control group. For both studies, at 21 days post-cell inoculation mice were randomized into three or two groups (10–12 animals per group). Treatment protocol consisted in 6 doses at 4-day intervals injected by i.v route: 8-QA (47.0 μmol/kg) and 10-QA (46.7 μmol/kg)were injected at 50% of Maximum Tolerated Dose (MTD) while non-targeted derivative 8 (47.0 μmol/kg) was injected at equimolar dose of 8-QA. All molecules were diluted in saline with 2% ethanol. Control animals received vehicle according to the same schedule.
Tumor volume (TV) was calculated using the following formula:
TV (mm^3) = [length x (width)^2]/2.
Tumor Growth Inhibition (TGI) was calculated as follows: TGI (%) = [1-(Tn/Cn)] × 100, where Tn is the tumor volume of the treated group at day n and Cn the tumor volume of the control group at day n.
Data are represented as means ± SD. For antitumor efficiency and mouse weight monitoring, statistical significance was determined using two-way ANOVA. For tumor weight, mitosis number and hematological analyses, statistical significance was determined using one-way ANOVA. Both tests were followed by Tukey's post-hoc multiple comparisons test. Results were considered significant at p < 0.05.

[9] = hypoxia (N2, O2 < 0.3%), read-out: IC50 Spheroids Hypoxia
[10] = normoxia (21% O2), read-out: IC50 Spheroids Normoxia
[11] = tumors sampled one day after last injection
[12] = hypoxia (N2, O2 < 0.3%), 24 hours exposure then 48 hours in normoxia, read-out: IC50 Monolayer Hypoxia
[13] = normoxia (21% O2), 24 hours exposure then 48 hours in normoxia, read-out: IC50 Monolayer Normoxia

Row | SMILES | Mouse weight loss during treatment [1] | IC50 [2, 9] [µM] | IC50 [2, 10] [µM] | S/M (spheroid/monolayer cytotoxic ratio) Hypoxia [2] | S/M (spheroid/monolayer cytotoxic ratio) Normoxia [2] | HCR (hypoxic-cytotoxic ratio) Spheroids [2] | γH2AX-positive cells in pimonidazole-positive hypoxic tumor areas [3] | IC50 [5, 12] [µM] | IC50 [5, 13] [µM] | HCR (hypoxic-cytotoxic ratio) Monolayer [5] | Binding to aggrecan (sensorgrams) [6] | Kd [6] [µM] | Antitumor effect (tumor volume vs controls) [8] | further results
1 | Cn1c(COP(=O)(NCCC[N+](C)(C)C)N(CCCl)CCCl)cnc1[N+](=O)[O-] (stereo not shown) [8-QA] | did not cause any weight loss | 31.8 ± 5.5 | 101 ± 32.6 | 7.4 | 3.4 | 3.1 | strong increase of γH2AX-positive cells | 4.3 ± 1.2 | 29.3 ± 8 | 6.8 | dose-dependent binding | 890 | significant antitumor effect | Mitotic index in tumor tissues ([3]; H&E, tumors sampled at D41, 47.0 μmol/kg i.v. q4d x 6): 9.7 ± 9.0 mitosis per 10 fields; Phosphorylated-p53 (S15) in tumors, western blot [3, 11]: significant increased of phosphorylated-p53 (S15); p21 in tumors, western blot [3, 11]: induction of p21; p-CHK1 in treated tumor samples, western blot [3, 11]: no increase of p-CHK1; Cell cycle distribution in hypoxia ([4]; hypoxia (N2, O2 < 0.3%), 25, 50, 100 μM for 24 hours): high accumulation of cells in S and SubG0/G1 phases; Annexin V positive cells (cell death vs control) ([4]; hypoxia, 100 μM, 24 hours): 4.1 fold; Cell cycle distribution in normoxia ([4]; normoxia (21% O2), 25, 50, 100 μM for 24 hours): increase in S-phase; IC50 [7]: 132 ± 29 µM; Tumor growth inhibition (TGI) at D41 ([8]; 47 μmol/kg i.v., q4d x 6, day after last injection (D41)): 62.1%; Tumor weight ([8]; one day after the last injection, normalized to control group): significant decrease
2 | C[N+](C)(C)CCCNP(=O)(OCc1ccccc1)N(CCCl)CCCl (stereo not shown) [10-QA] | did not cause any weight loss | > 200 | > 200 |  |  |  | did not cause any γH2AX-positive cells | > 200 | > 200 |  | dose-dependent binding | 4100 | no antitumor effect | IC50 ([5]; read-out: IC50 (cytotoxicity in any of the experimental conditions)): > 200 µM
3 | CCCNP(=O)(OCc1cnc([N+](=O)[O-])n1C)N(CCCl)CCCl (stereo not shown) [compound 8] | did not cause any weight loss | 5.7 ± 1.2 | 99.4 ± 5.2 | 1.3 | 3.1 | 17.4 | did not cause any γH2AX-positive cells | 4.3 ± 1.2 | 32.5 ± 4.3 | 7.5 | no affinity |  | no antitumor efficacy | White blood cell count ([1]; 24 hours after the last dose): significant decrease in white blood cell count

— article PMC5707064, “Proteoglycan-targeting applied to hypoxia-activated prodrug therapy in chondrosarcoma: first proof-of-concept” (Oncotarget, 2017)
